According to ChEMBL document CHEMBL1201862, “PubChem BioAssay data set” (2004):
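Each compound was tested at five concentrations against cells in 96-well plates for 48 hours. Abbreviation: GI50, concentration required for 50% inhibition of growth.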 The source made the active and inactive calls. Rule as the data show it: active = GI50 up to about 1.1 µM and inactive = higher.

Legend:
Assay in all cases: inhibition of tumour cell growth, NCI panel, 48 h
[1] = system: 786-0
[2] = system: A498
[3] = system: A549
[4] = system: ACHN
[5] = system: BT-549
[6] = system: CAKI-1
[7] = system: CCRF-CEM
[8] = system: COLO 205
[9] = system: DU-145
[10] = system: EKVX
[11] = system: HCC 2998
[12] = system: HCT-116
[13] = system: HCT-15
[14] = system: HL-60
[15] = system: HOP-62
[16] = system: HOP-92
[17] = system: HT-29
[18] = system: Hs-578T
[19] = system: IGROV-1
[20] = system: K562
[21] = system: KM12
[22] = system: LOX IMVI
[23] = system: M14
[24] = system: MCF7
[25] = system: MDA-MB-231
[26] = system: MDA-MB-435
[27] = system: MDA-N
[28] = system: MOLT-4
[29] = system: Malme-3M
[30] = system: NCI-H226
[31] = system: NCI-H23
[32] = system: NCI-H460
[33] = system: NCI-H522
[34] = system: NCI/ADR-RES
[35] = system: OVCAR-3
[36] = system: OVCAR-4
[37] = system: OVCAR-5
[38] = system: OVCAR-8
[39] = system: PC-3
[40] = system: RPMI-8226
[41] = system: RXF 393
[42] = system: SF-268
[43] = system: SF-295
[44] = system: SF-539
[45] = system: SK-MEL-28
[46] = system: SK-MEL-2
[47] = system: SK-MEL-5
[48] = system: SK-OV-3
[49] = system: SN12C
[50] = system: SNB-19
[51] = system: SNB-75
[52] = system: SR
[53] = system: SW-620
[54] = system: T47D
[55] = system: TK-10
[56] = system: U-251
[57] = system: UACC-257
[58] = system: UACC-62
[59] = system: UO-31

Measured: GI50

CC(=O)Nc1c2sscc-2n(C)c1=O [THIOLUTIN]
inactive: [1] 1.52 µM | [2] 1.86 µM | [3] 1.55 µM | [5] 1.43 µM | [6] 1.89 µM | [10] 1.87 µM | [15] 1.67 µM | [16] 2.23 µM | [18] 2.6 µM | [19] 1.86 µM | [20] 1.52 µM | [21] 1.32 µM | [22] 1.86 µM | [25] 1.73 µM | [27] 1.56 µM | [30] 1.89 µM | [33] 1.3 µM | [34] 1.16 µM | [35] 1.82 µM | [36] 1.56 µM | [37] 1.6 µM | [39] 1.58 µM | [41] 1.71 µM | [42] 1.56 µM | [43] 1.35 µM | [44] 1.86 µM | [45] 1.37 µM | [46] 1.88 µM | [47] 1.33 µM | [48] 1.2 µM | [49] 1.87 µM | [50] 1.96 µM | [51] 1.67 µM | [54] 1.58 µM | [55] 2.15 µM | [57] 1.57 µM | [59] 2.1 µM
active: [4] 0.984 µM | [7] 0.282 µM | [8] 0.596 µM | [9] 0.634 µM | [11] 0.587 µM | [12] 0.695 µM | [14] 0.512 µM | [17] 0.272 µM | [23] 0.314 µM | [24] 0.63 µM | [26] 1.01 µM | [28] 0.152 µM | [29] 0.787 µM | [31] 0.853 µM | [32] 0.537 µM | [38] 0.638 µM | [40] 0.575 µM | [52] 0.235 µM | [53] 0.664 µM | [56] 1.12 µM | [58] 0.443 µM
1.32 µM: [13]

COc1ccc2c(c1)[nH]c1c(/C=C/c3ccccc3)nccc12
11.5 µM: [13]
inactive: [1] 15.1 µM | [2] 12.3 µM | [3] 14.9 µM | [4] 12.2 µM | [5] 12.8 µM | [6] 14.5 µM | [7] 17 µM | [8] 3.83 µM | [9] 20.5 µM | [10] 12.6 µM | [11] 13 µM | [12] 12.1 µM | [14] 19.1 µM | [15] 15.7 µM | [16] 18.6 µM | [17] 10 µM | [18] 19 µM | [19] 14.7 µM | [20] 15.9 µM | [21] 14.1 µM | [22] 18.7 µM | [23] 15.9 µM | [24] 16 µM | [25] 17.5 µM | [26] 16.2 µM | [27] 16.2 µM | [28] 7.55 µM | [29] 15.9 µM | [30] 17.4 µM | [31] 15.3 µM | [32] 13.2 µM | [33] 12.4 µM | [34] 11 µM | [35] 13.6 µM | [36] 19.6 µM | [37] 14.9 µM | [38] 14.2 µM | [39] 16.1 µM | [40] 13.3 µM | [41] 14.8 µM | [42] 17.7 µM | [43] 8.81 µM | [44] 13 µM | [45] 14.9 µM | [46] 16.2 µM | [47] 14.8 µM | [48] 13.8 µM | [49] 14.2 µM | [50] 16 µM | [51] 12.3 µM | [52] 3.47 µM | [53] 15.9 µM | [54] 23.5 µM | [55] 19.4 µM | [56] 14.1 µM | [57] 16.1 µM | [58] 14.5 µM | [59] 10.4 µM
